Assay [1] concerns the target T1, Epidermal growth factor receptor (Homo sapiens, UniProt P00533). The assay can be described thus: Inhibition of epidermal growth factor receptor (EGFR) phosphorylation of the exogenous substrate poly(Glu6, Ala3,Tyr) (polyGAT).
For assay [2], the target named is T1, Epidermal growth factor receptor. The assay can be described thus: Inhibitory activity of compound against Epidermal growth factor receptor autophosphorylation.

Some results are limits rather than exact numbers.

T1 sequence (P00533 whole entry): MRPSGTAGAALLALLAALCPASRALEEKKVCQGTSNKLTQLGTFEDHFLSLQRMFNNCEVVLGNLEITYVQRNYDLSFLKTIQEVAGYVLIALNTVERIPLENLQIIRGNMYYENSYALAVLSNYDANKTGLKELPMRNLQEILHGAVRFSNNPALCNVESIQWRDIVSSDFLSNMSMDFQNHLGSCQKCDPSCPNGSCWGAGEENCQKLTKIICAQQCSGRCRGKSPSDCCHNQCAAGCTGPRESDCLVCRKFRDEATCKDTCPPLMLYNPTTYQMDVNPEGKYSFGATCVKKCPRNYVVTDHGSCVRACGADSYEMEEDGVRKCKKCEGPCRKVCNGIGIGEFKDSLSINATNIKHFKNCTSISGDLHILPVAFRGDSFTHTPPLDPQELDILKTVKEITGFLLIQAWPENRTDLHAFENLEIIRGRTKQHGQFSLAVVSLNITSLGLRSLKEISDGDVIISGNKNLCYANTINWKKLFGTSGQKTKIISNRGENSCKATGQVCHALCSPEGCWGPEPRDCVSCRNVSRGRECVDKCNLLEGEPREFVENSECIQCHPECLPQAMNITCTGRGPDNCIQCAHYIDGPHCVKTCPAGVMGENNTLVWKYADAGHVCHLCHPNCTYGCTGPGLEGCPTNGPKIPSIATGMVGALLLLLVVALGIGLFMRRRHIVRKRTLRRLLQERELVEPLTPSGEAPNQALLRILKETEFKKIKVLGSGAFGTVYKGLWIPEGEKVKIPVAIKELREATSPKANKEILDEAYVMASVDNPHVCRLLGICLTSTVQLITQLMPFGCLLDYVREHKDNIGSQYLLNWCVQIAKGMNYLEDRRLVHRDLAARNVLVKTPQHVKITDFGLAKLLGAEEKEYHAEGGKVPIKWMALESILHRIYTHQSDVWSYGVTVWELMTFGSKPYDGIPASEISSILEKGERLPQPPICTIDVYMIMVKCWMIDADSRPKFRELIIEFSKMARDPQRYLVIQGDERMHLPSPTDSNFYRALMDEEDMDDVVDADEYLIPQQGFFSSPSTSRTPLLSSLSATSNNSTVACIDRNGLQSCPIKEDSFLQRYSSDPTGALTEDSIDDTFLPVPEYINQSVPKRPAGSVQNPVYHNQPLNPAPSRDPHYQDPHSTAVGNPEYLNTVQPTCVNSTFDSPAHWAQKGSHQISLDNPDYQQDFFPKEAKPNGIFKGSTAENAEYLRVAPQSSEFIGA

In general, IC50 refers to the concentration needed to halve the response being measured. Higher therefore signals weaker potency in that assay. `N#C/C(=C\c1ccc2[nH]ccc2c1)C(=O)NCCCNC(=O)/C(C#N)=C/c1ccc2[nH]ccc2c1`: the IC50 in assay [1] and in assay [2] was above 100 µM in each case.
With `N#C/C(=C\c1ccc(O)c(O)c1)C(=O)NCc1cccc(CNC(=O)/C(C#N)=C/c2ccc(O)c(O)c2)c1`, the IC50 was 1.6 µM in assay [1] and 10.3 µM in assay [2].
`N#C/C(=C\c1ccc(O)c(O)c1)C(=O)NCCCN1CCN(CCCNC(=O)/C(C#N)=C/c2ccc(O)c(O)c2)CC1` showed an IC50 in assay [2] above 167 µM.
On to `N#C/C(=C\c1ccc(O)c(O)c1)C(=O)NCCCCNC(=O)/C(C#N)=C/c1ccc(O)c(O)c1`, for which the IC50 in assay [1] is 0.6 µM; in assay [2], 4.3 µM.
For `N#C/C(=C\c1cc(O)c(O)c([N+](=O)[O-])c1)C(=O)NCCCNC(=O)/C(C#N)=C/c1cc(O)c(O)c([N+](=O)[O-])c1`, the IC50 in assay [2] was above 100 µM.
As for `N#C/C(=C\c1ccc(O)c(O)c1)C(=O)NCCCCCCNC(=O)/C(C#N)=C/c1ccc(O)c(O)c1`, the results for the IC50 in assay [1] and in assay [2] were 0.7 µM and 11 µM, respectively.
For `N#C/C(=C\c1cc(O)c(O)c(Br)c1)C(=O)NCCCNC(=O)/C(C#N)=C/c1cc(O)c(O)c(Br)c1`, in that order: 0.34 µM and 3.9 µM.
The matching figures for `N#C/C(=C\c1ccc(O)c(O)c1)C(=O)NC1CCCC[C@@H]1NC(=O)/C(C#N)=C/c1ccc(O)c(O)c1` (some centres not stated): 2.1 µM and 13.5 µM.
Consider `N#C/C(=C\c1cc(O)c(O)c(Br)c1)S(=O)(=O)/C(C#N)=C/c1cc(O)c(O)c(Br)c1`, for which the IC50 in assay [1] was found to be 0.85 µM; in assay [2], 1.4 µM.
Turning to `N#C/C(=C\c1ccc(O)c(O)c1)C(=O)NCCCCCNC(=O)/C(C#N)=C/c1ccc(O)c(O)c1`, the IC50 in assay [1] came out at 0.7 µM; in assay [2], 20 µM.
For `N#C/C(=C\c1ccc(O)c(O)c1)C(=O)NCCNC(=O)/C(C#N)=C/c1ccc(O)c(O)c1`, in that order: 0.5 µM and 113 µM.
In assay [2], `N#C/C(=C\c1ccc(O)c(O)c1)C(=O)NCN1CCN(C(=O)/C(C#N)=C/c2ccc(O)c(O)c2)CC1` showed an IC50 above 83 µM.
Consider `COc1cc(/C=C(\C#N)C(=O)NCCCCNC(=O)/C(C#N)=C/c2cc(OC)c(O)c([N+](=O)[O-])c2)cc([N+](=O)[O-])c1O`, for which the IC50 in assay [1] turned out to be 112 µM; in assay [2] it was 19 µM.
In assay [2], `N#C/C(=C\c1ccc(O)c(O)c1)C(=O)NC1CCC(CC2CCC(NC(=O)/C(C#N)=C/c3ccc(O)c(O)c3)CC2)CC1` (configuration not stated) returned an IC50 above 83 µM.
As for `N#C/C(=C\c1ccc(O)c(O)c1)C(=O)NCCN1CCN(C(=O)/C(C#N)=C/c2ccc(O)c(O)c2)CC1`, the values for the IC50 in assay [1] and in assay [2] were 2.2 µM and 10 µM, respectively.
Regarding `N#C/C(=C\c1ccc(O)c(O)c1)S(=O)(=O)/C(C#N)=C/c1ccc(O)c(O)c1`, the half-inhibitory concentration (IC50) in assay [1] is 0.38 µM; in assay [2] it was 12 µM.
The matching figures for `N#C/C(=C\c1ccc(O)c(O)c1)C(=O)NCC1CCCC(CNC(=O)/C(C#N)=C/c2ccc(O)c(O)c2)C1` (configuration not stated): 1.8 µM and above 100 µM.
In assay [2], `COc1cc(/C=C(\C#N)C(=O)NCCCCNC(=O)/C(C#N)=C/c2cc(Br)c(O)c(OC)c2)cc(Br)c1O` showed an IC50 of 102 µM.
As to `N#C/C(=C\c1ccc(O)c(O)c1)C(=O)N1CCN(C(=O)/C(C#N)=C/c2ccc(O)c(O)c2)CC1`, the IC50 in assay [1] came out at 4 µM; in assay [2], 25 µM.
Take `N#C/C(=C\c1cc(O)c(O)c(O)c1)C(=O)NCCCCNC(=O)/C(C#N)=C/c1cc(O)c(O)c(O)c1`: the results for the IC50 in assay [1] and in assay [2] were 0.6 µM and 21 µM, respectively.
Regarding `N#C/C(=C\c1ccc(O)c(O)c1)C(=O)NCCCCCCCCCCNC(=O)/C(C#N)=C/c1ccc(O)c(O)c1`, the results for the IC50 in assay [1] and in assay [2] were 1.3 µM and above 100 µM, respectively.
